Earlier results in PMC3273554 (Molecular Pharmaceutics, 2011).

How the values were obtained:
[1] = system: melanoma, BRAF V600E
[2] = system: T cells; details: intracellular IFN-γ staining
[3] = system: B16F10; details: delivered with poly(I:C) and anti-CD40, boosted; prophylactic B16F10 model
[4] = system: HLA-A201; details: 100µg (63.8nmol) with 50µg PADRE T helper epitope in IFA

CCCS(=O)(=O)Nc1ccc(F)c(C(=O)c2c[nH]c3ncc(-c4ccc(Cl)cc4)cc23)c1F [vemurafenib]
Response rate in trials [1]: ≤ 81%

SIYDFFVWL [deltaV]
T cell responsiveness to Trp2 [2]: increased T cell responsiveness | Tumor growth delay compared to wild type peptide [3]: no increased growth delay

SMYDFFVWL [Trp2 2M]
IFN-γ elicited compared to vaccination with wild type peptide [4]: higher amounts of IFN-γ
